In ChEMBL document CHEMBL3885881, “DrugMatrix”:

Species on record: Rattus norvegicus
Assay: DrugMatrix - Regimen: Daily Repeat
Format: toxicity, organism-based, Sprague-Dawley
Design: regimen Daily Repeat, gender Male, age 6-8 weeks
Conditions: in vivo, po, route oral GAVAGE, […]; for ABSOLUTE BASOPHIL / ABSOLUTE EOSINOPHIL / ABSOLUTE LYMPHOCYTE / ABSOLUTE MONOCYTE / ABSOLUTE SEGMENTED NEUTROPHIL / BASOPHIL / EOSINOPHIL / ERYTHROCYTE COUNT / HEMATOCRIT / HEMOGLOBIN / LEUKOCYTE COUNT / LYMPHOCYTE / MEAN CORPUSCULAR HEMOGLOBIN / MEAN CORPUSCULAR HEMOGLOBIN CONCENTRATION / MEAN CORPUSCULAR VOLUME / MONOCYTE / NEUTROPHIL / NUCLEATED RED BLOOD CELLS / PLATELET COUNT: tissue Blood; for ALANINE AMINOTRANSFERASE / ALBUMIN / ALKALINE PHOSPHATASE / ASPARTATE AMINOTRANSFERASE / BLOOD UREA NITROGEN / CARBON DIOXIDE / CHLORIDE / CHOLESTEROL / CREATINE PHOSPHOKINASE / CREATININE / GLUCOSE / LACTATE DEHYDROGENASE / LIPASE / PHOSPHORUS / POTASSIUM / SODIUM / TOTAL BILIRUBIN / TOTAL PROTEIN / URIC ACID: tissue Plasma
[1] = 10 mg/kg, 120 h, dose level Low, time 5 day
[2] = 250 mg/kg, 72 h, dose level High, time 3 day
[3] = 250 mg/kg, 120 h, dose level High, time 5 day

COc1cc(N)c(Cl)cc1C(=O)NC1CCN(CCCOc2ccc(F)cc2)CC1OC (centres undefined) [CISAPRIDE]
ABSOLUTE BASOPHIL [1]: 0 CELLS/uL
ABSOLUTE EOSINOPHIL [1]: 0 CELLS/uL
ABSOLUTE LYMPHOCYTE [1]: 8665 CELLS/uL
ABSOLUTE MONOCYTE [1]: 47.33 CELLS/uL
ABSOLUTE SEGMENTED NEUTROPHIL [1]: 387.67 CELLS/uL
BASOPHIL [1]: 0%
EOSINOPHIL [1]: 0%
ERYTHROCYTE COUNT [1]: 6.01 x10E6/uL
HEMATOCRIT [1]: 36.43%
HEMOGLOBIN [1]: 13.9 G/DL
LEUKOCYTE COUNT [1]: 9.1 x10E3/uL
LYMPHOCYTE [1]: 94.67%
MEAN CORPUSCULAR HEMOGLOBIN [1]: 23.2 pg
MEAN CORPUSCULAR HEMOGLOBIN CONCENTRATION [1]: 38.17 G/DL
MEAN CORPUSCULAR VOLUME [1]: 60.73 fL
MONOCYTE [1]: 0.67%
NEUTROPHIL [1]: 4.67%
NUCLEATED RED BLOOD CELLS [1]: 0.33 /100WBC
PLATELET COUNT [1]: 1215.33 x10E3/uL
ALANINE AMINOTRANSFERASE [1]: 83.67 u/L
ALBUMIN [1]: 4.23 G/DL
ALKALINE PHOSPHATASE [1]: 427.67 u/L
ASPARTATE AMINOTRANSFERASE [1]: 78.33 u/L
BLOOD UREA NITROGEN [1]: 13.67 mg/dL
CARBON DIOXIDE [1]: 35 mmol/L
CHLORIDE [1]: 99.33 MEQ/L
CHOLESTEROL [1]: 86.33 mg/dL
CREATINE PHOSPHOKINASE [1]: 161.33 u/L
CREATININE [1]: 0.16 mg/dL
GLUCOSE [1]: 163 mg/dL
LACTATE DEHYDROGENASE [1]: 134.33 u/L
LIPASE [1]: 11 u/L
PHOSPHORUS [1]: 9.6 mg/dL
POTASSIUM [1]: 5.19 MEQ/L
SODIUM [1]: 143.17 MEQ/L
TOTAL BILIRUBIN [1]: 0.17 mg/dL
TOTAL PROTEIN [1]: 6.1 G/DL
URIC ACID [1]: 0.37 mg/dL
ABSOLUTE BASOPHIL [2]: 0 CELLS/uL
ABSOLUTE EOSINOPHIL [2]: 36.33 CELLS/uL
ABSOLUTE LYMPHOCYTE [2]: 10590.67 CELLS/uL
ABSOLUTE MONOCYTE [2]: 0 CELLS/uL
ABSOLUTE SEGMENTED NEUTROPHIL [2]: 573 CELLS/uL
BASOPHIL [2]: 0%
EOSINOPHIL [2]: 0.33%
ERYTHROCYTE COUNT [2]: 5.39 x10E6/uL
HEMATOCRIT [2]: 32.73%
HEMOGLOBIN [2]: 13.17 G/DL
LEUKOCYTE COUNT [2]: 11.2 x10E3/uL
LYMPHOCYTE [2]: 94.67%
MEAN CORPUSCULAR HEMOGLOBIN [2]: 24.43 pg
MEAN CORPUSCULAR HEMOGLOBIN CONCENTRATION [2]: 40.2 G/DL
MEAN CORPUSCULAR VOLUME [2]: 60.73 fL
MONOCYTE [2]: 0%
NEUTROPHIL [2]: 5%
NUCLEATED RED BLOOD CELLS [2]: 0 /100WBC
PLATELET COUNT [2]: 918 x10E3/uL
ALANINE AMINOTRANSFERASE [2]: 102.67 u/L
ALBUMIN [2]: 3.83 G/DL
ALKALINE PHOSPHATASE [2]: 517.33 u/L
ASPARTATE AMINOTRANSFERASE [2]: 96 u/L
BLOOD UREA NITROGEN [2]: 13 mg/dL
CARBON DIOXIDE [2]: 26 mmol/L
CHLORIDE [2]: 95 MEQ/L
CHOLESTEROL [2]: 89.67 mg/dL
CREATINE PHOSPHOKINASE [2]: 253 u/L
CREATININE [2]: 0.15 mg/dL
GLUCOSE [2]: 137.33 mg/dL
LACTATE DEHYDROGENASE [2]: 118.33 u/L
LIPASE [2]: 12.33 u/L
PHOSPHORUS [2]: 10.77 mg/dL
POTASSIUM [2]: 5.65 MEQ/L
SODIUM [2]: 138.1 MEQ/L
TOTAL BILIRUBIN [2]: 0.17 mg/dL
TOTAL PROTEIN [2]: 5.5 G/DL
URIC ACID [2]: 0.6 mg/dL
ABSOLUTE BASOPHIL [3]: 0 CELLS/uL
ABSOLUTE EOSINOPHIL [3]: 43.33 CELLS/uL
ABSOLUTE LYMPHOCYTE [3]: 8832 CELLS/uL
ABSOLUTE MONOCYTE [3]: 95.67 CELLS/uL
ABSOLUTE SEGMENTED NEUTROPHIL [3]: 595.67 CELLS/uL
BASOPHIL [3]: 0%
EOSINOPHIL [3]: 0.33%
ERYTHROCYTE COUNT [3]: 5.74 x10E6/uL
HEMATOCRIT [3]: 35.13%
HEMOGLOBIN [3]: 13.57 G/DL
LEUKOCYTE COUNT [3]: 9.57 x10E3/uL
LYMPHOCYTE [3]: 92%
MEAN CORPUSCULAR HEMOGLOBIN [3]: 23.67 pg
MEAN CORPUSCULAR HEMOGLOBIN CONCENTRATION [3]: 38.63 G/DL
MEAN CORPUSCULAR VOLUME [3]: 61.23 fL
MONOCYTE [3]: 1%
NEUTROPHIL [3]: 6.67%
NUCLEATED RED BLOOD CELLS [3]: 0.67 /100WBC
PLATELET COUNT [3]: 1240.33 x10E3/uL
ALANINE AMINOTRANSFERASE [3]: 89 u/L
ALBUMIN [3]: 3.93 G/DL
ALKALINE PHOSPHATASE [3]: 342 u/L
ASPARTATE AMINOTRANSFERASE [3]: 87.67 u/L
BLOOD UREA NITROGEN [3]: 14.67 mg/dL
CARBON DIOXIDE [3]: 34 mmol/L
CHLORIDE [3]: 99.5 MEQ/L
CHOLESTEROL [3]: 78.33 mg/dL
CREATINE PHOSPHOKINASE [3]: 245 u/L
CREATININE [3]: 0.15 mg/dL
GLUCOSE [3]: 170.67 mg/dL
LACTATE DEHYDROGENASE [3]: 145 u/L
LIPASE [3]: 12.67 u/L
PHOSPHORUS [3]: 10.53 mg/dL
POTASSIUM [3]: 5.47 MEQ/L
SODIUM [3]: 141.95 MEQ/L
TOTAL BILIRUBIN [3]: 0.17 mg/dL
TOTAL PROTEIN [3]: 5.57 G/DL
URIC ACID [3]: 0.67 mg/dL
